Data published in patent publication US10570179B2, “Substituted urea depsipeptide analogs as activators of the CLPP endopeptidase” (priority 2016, dated 2020).
≈ marks a conversion by molar mass, not a printed value. Where two headings read alike, the source gives them in different places. Numbered stars: 1 amine (or outer) side, 2 acyl side, 3 side chain; on linkers, the order of the positions; unused ones are H or OH. Bridge positions count the residues as written; N and C are the ends. Square brackets hold non-standard residues; d marks the D form. Peptide text beside a SMILES is read from it. * marks the point of attachment. Phe(3-CF3) = N[C@@H](Cc1cccc(C(F)(F)F)c1)C(=O)O; Piperazine(2S-CO,4-Me) = CN1CCN[C@H](C(=O)O)C1; Phe(3-Me) = Cc1cccc(C[C@H](N)C(=O)O)c1; NH(4-Cl-2-F-phenyl) = Fc1cc(Cl)ccc1N*; Pro(4R-Me) = C[C@H]1CN[C@H](C(=O)O)C1; Hyp = O=C(O)[C@@H]1C[C@@H](O)CN1; NH(4-Me-phenyl) = Cc1ccc(N*)cc1; aThr = C[C@H](O)[C@H](N)C(=O)O; Pip = O=C(O)[C@@H]1CCCCN1; X3 = c1cc2c(cc1N*)OCCO2; CO = O=C([*:1])[*:2]

Legend:
Sa-ClpP = target: T1, Sa-ClpP (Staphylococcus aureus, UniProt Q2G036); experiment: ADEP displacement fluorescence polarization assay; assay type: binding, S. aureus; conditions: displacement of FP probe ADEP 2591 from Sa-ClpP
T1 construct: made in house; host or cells: E. coli BL21 (DE3)
Method in brief: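 Master mix of 15 μM Sa-ClpP and 50 nM TAMRA-labelled ADEP 2591 probe in Tris-HCl pH 8.0, 2% DMSO, was pre-equilibrated 1 h at RT, then compounds were added and incubated 120 min at RT. Polarization (ex 530, em 579 nm, mP) was normalised to 200 μM ADEP 2378 and DMSO controls and fitted by four-parameter regression, in triplicate.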

MRSA NRS70 = experiment: Minimal inhibitory concentration, microbroth dilution; assay type: cell-based; conditions: Staphylococcus aureus
Method in brief: (§1)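 Growth inhibition was scored visually after overnight aerobic culture at 37 °C in CLSI-style microdilution plates. Inocula contained about 10^5 cfu/mL, and compound concentrations descended in twofold steps from 200 μM.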

S. aureus USA 300 = experiment: as above; assay type: cell-based; conditions: Staphylococcus aureus
Method in brief: as §1

E. faecails = experiment: as above; assay type: cell-based; conditions: Enterococcus faecalis
Method in brief: as §1

S. aureus ATCC 29213 = experiment: as above; assay type: cell-based; conditions: Staphylococcus aureus
Method in brief: as §1

[1] = Microsomal metabolic stability; assay type: in vitro ADME, mouse
Method in brief: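 CD-1 mouse liver microsomes (0.6381 mg/mL protein microsomal solution, 0.1 M potassium phosphate pH 7.4 with EDTA) were incubated with compound and an NADPH-regenerating system at 37 °C, in triplicate. Acetonitrile/warfarin quench at 0, 15, 30, 60, 120 and 240 min, then LCMS. Half-life came from a first-order least-squares fit.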

S. aureus ΔClpP = experiment: Minimal inhibitory concentration, microbroth dilution; assay type: cell-based, Staphylococcus aureus; conditions: MIC; ClpP inactivated
Method in brief: as §1

[2] = MIC, read-out: Minimal Inhibitory Concentrations (μM) MRSA NRS70
[3] = USA300, MIC, read-out: Minimal Inhibitory Concentrations (μM) S. aureus USA 300
[4] = MIC, read-out: Minimal Inhibitory Concentrations (μM) E. faecails
[5] = ATCC29213, MIC, read-out: Minimal Inhibitory Concentrations (μM) S. aureus ATCC 29213
[6] = read-out: Minimal Inhibitory Concentrations (μM) MRSA NRS70, MIC
[7] = USA300, read-out: Minimal Inhibitory Concentrations (μM) S. aureus USA 300, MIC
[8] = read-out: Minimal Inhibitory Concentrations (μM) E. faecails, MIC
[9] = ATCC29213, read-out: Minimal Inhibitory Concentrations (μM) S. aureus ATCC 29213, MIC
[10] = microsomal metabolic stability half-life, mouse liver microsomes

T1 sequence (Q2G036 whole entry): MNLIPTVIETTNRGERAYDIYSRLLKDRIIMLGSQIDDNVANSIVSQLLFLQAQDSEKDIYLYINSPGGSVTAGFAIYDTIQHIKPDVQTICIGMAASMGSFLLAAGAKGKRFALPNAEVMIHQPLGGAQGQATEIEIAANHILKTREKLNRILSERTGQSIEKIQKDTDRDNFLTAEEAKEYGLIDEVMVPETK

Cc1cccc(C[C@H](NC(=O)Nc2ccc(Cl)cc2F)C(=O)N[C@@H]2C(=O)N3CCC[C@H]3C(=O)N3CCCC[C@H]3C(=O)N[C@@H](C)C(=O)N3C[C@H](C)C[C@H]3C(=O)O[C@H]2C)c1 [Compound 3, (S)-2-(3-(4-CHLORO-2-FLUOROPHENYL)UREIDO)-3-(M-TOLYL)-N-((2R,6S,8AS,14AS,20S,21S,23AS)-2,6,21-TRIMETHYL-5,8,14,19,23-PENTAOXOOCTADECAHYDRO-1H,5H,14H,19H-PYRIDO[2,1-I]DIPYRROLO[2,1-C:2′,1′-L][1]OXA[4,7,10,13]TETRAAZACYCLOHEXADECIN-20-YL)PROPANAMIDE] ({NH(4-Cl-2-F-phenyl)-CO}-[Phe(3-Me)][aThr]P[Pip]A[Pro(4R-Me)]; ester 2-C)
IC50 (Sa-ClpP): 6.61 ± 0.28 µM
MIC (MRSA NRS70; [2]): 0.078 µM (≈ 0.0643 µg/mL)
MIC (S. aureus USA 300; [3]): 0.156 µM (≈ 0.129 µg/mL)
MIC (E. faecails; [4]): 0.078 µM (≈ 0.0643 µg/mL)
MIC (S. aureus ATCC 29213; [5]): 0.156 µM (≈ 0.129 µg/mL)
Mouse ([1]; CD-1, mouse, pH 7.4): 11.65 ± 2.2 h
Minimal Inhibitory Concentrations (μM) S. aureus ΔClpP (S. aureus ΔClpP): 50 µM

Cc1ccc(NC(=O)N[C@@H](Cc2cccc(C)c2)C(=O)N[C@H]2COC(=O)[C@@H]3C[C@@H](C)CN3C(=O)[C@H](C)NC(=O)[C@@H]3CN(C)CCN3C(=O)[C@@H]3CCCN3C2=O)cc1 [Compound 15, (S)-3-(M-TOLYL)-2-(3-(P-TOLYL)UREIDO)-N-((6AS,12S,15AS,17R,21S,23AS)-2,17,21-TRIMETHYL-6,11,15,20,23-PENTAOXOOCTADECAHYDRO-2H,6H,11H,15H-PYRAZINO[2,1-I]DIPYRROLO[2,1-C:2′,1′-L][1]OXA[4,7,10,13]TETRAAZACYCLOHEXADECIN-12-YL)PROPANAMIDE] ({NH(4-Me-phenyl)-CO}-[Phe(3-Me)]SP[Piperazine(2S-CO,4-Me)]A[Pro(4R-Me)]; ester 2-C)
IC50 (Sa-ClpP): 8.12 ± 0.2 µM
MIC (MRSA NRS70; [6]): 2.5 µM (≈ 1.97 µg/mL)
MIC (S. aureus USA 300; [7]): 5 µM (≈ 3.93 µg/mL)
MIC (E. faecails; [8]): 1.25 µM (≈ 0.984 µg/mL)
MIC (S. aureus ATCC 29213; [9]): 2.5 µM (≈ 1.97 µg/mL)
Mouse [1, 10]: 2.28 ± 0.16 h
Minimal Inhibitory Concentrations (μM) S. aureus ΔClpP (S. aureus ΔClpP): >20 µM

Cc1ccc(NC(=O)N[C@@H](Cc2cccc(C)c2)C(=O)N[C@@H]2C(=O)N3C[C@H](O)C[C@H]3C(=O)N3CCCC[C@H]3C(=O)N[C@@H](C)C(=O)N3C[C@H](C)C[C@H]3C(=O)O[C@H]2C)cc1 [Compound 26, (S)—N-((2R,6S,8AS,14AS,16R,20S,21S,23AS)-16-HYDROXY-2,6,21-TRIMETHYL-5,8,14,19,23-PENTAOXOOCTADECAHYDRO-1H,5H,14H,19H-PYRIDO[2,1-I]DIPYRROLO[2,1-C:2′,1′-L][1]OXA[4,7,10,13]TETRAAZACYCLOHEXADECIN-20-YL)-3-(M-TOLYL)-2-(3-(P-TOLYL)UREIDO)PROPANAMIDE] ({NH(4-Me-phenyl)-CO}-[Phe(3-Me)][aThr][Hyp][Pip]A[Pro(4R-Me)]; ester 2-C)
IC50 (Sa-ClpP): 4.26 ± 0.16 µM
MIC (MRSA NRS70; [6]): 0.313 µM (≈ 0.251 µg/mL)
MIC (S. aureus USA 300; [7]): 2.5 µM (≈ 2 µg/mL)
MIC (E. faecails; [8]): 5 µM (≈ 4.01 µg/mL)
MIC (S. aureus ATCC 29213; [9]): 0.313 µM (≈ 0.251 µg/mL)
Mouse [1, 10]: 2.49 ± 0.35 h
Minimal Inhibitory Concentrations (μM) S. aureus ΔClpP (S. aureus ΔClpP): >20 µM

C[C@@H]1C[C@H]2C(=O)OC[C@H](NC(=O)[C@H](Cc3cccc(C(F)(F)F)c3)NC(=O)Nc3ccc(Cl)cc3F)C(=O)N3CCC[C@H]3C(=O)N3CCN(C)C[C@H]3C(=O)N[C@@H](C)C(=O)N2C1 [Compound 18, (S)-2-(3-(4-CHLORO-2-FLUOROPHENYL)UREIDO)-3-(3-(TRIFLUOROMETHYL)PHENYL)-N-((6AS,12S,15AS,17R,21S,23AS)-2,17,21-TRIMETHYL-6,11,15,20,23-PENTAOXOOCTADECAHYDRO-2H,6H,11H,15H-PYRAZINO[2,1-I]DIPYRROLO[2,1-C:2′,1′-L][1]OXA[4,7,10,13]TETRAAZACYCLOHEXADECIN-12-YL)PROPANAMIDE] ({NH(4-Cl-2-F-phenyl)-CO}-[Phe(3-CF3)]SP[Piperazine(2S-CO,4-Me)]A[Pro(4R-Me)]; ester 2-C)
IC50 (Sa-ClpP): 4.79 ± 0.27 µM
MIC (MRSA NRS70; [2]): 5 µM (≈ 4.4 µg/mL)
MIC (S. aureus USA 300; [3]): 10 µM (≈ 8.79 µg/mL)
MIC (E. faecails; [4]): 0.313 µM (≈ 0.275 µg/mL)
MIC (S. aureus ATCC 29213; [5]): 10 µM (≈ 8.79 µg/mL)
Mouse ([1]; CD-1, mouse, pH 7.4): 1.88 ± 0.12 h
Minimal Inhibitory Concentrations (μM) S. aureus ΔClpP (S. aureus ΔClpP): >20 µM

Cc1cccc(C[C@H](NC(=O)Nc2ccc3c(c2)OCCO3)C(=O)N[C@@H]2C(=O)N3CCC[C@H]3C(=O)N3CCCC[C@H]3C(=O)N[C@@H](C)C(=O)N3C[C@H](C)C[C@H]3C(=O)O[C@H]2C)c1 [Compound 21, (S)-2-(3-(2,3-DIHYDROBENZO[B][1,4]DIOXIN-6-YL)UREIDO)-3-(M-TOLYL)-N-((2R,6S,8AS,14AS,20S,21S,23AS)-2,6,21-TRIMETHYL-5,8,14,19,23-PENTAOXOOCTADECAHYDRO-1H,5H,14H,19H-PYRIDO[2,1-I]DIPYRROLO[2,1-C:2′,1′-L][1]OXA[4,7,10,13]TETRAAZACYCLOHEXADECIN-20-YL)PROPANAMIDE] ({X3-CO}-[Phe(3-Me)][aThr]P[Pip]A[Pro(4R-Me)]; ester 2-C)
IC50 (Sa-ClpP): 3.74 ± 0.24 µM
MIC (MRSA NRS70; [2]): 0.313 µM (≈ 0.26 µg/mL)
MIC (S. aureus USA 300; [3]): 1.25 µM (≈ 1.04 µg/mL)
MIC (E. faecails; [4]): 0.625 µM (≈ 0.519 µg/mL)
MIC (S. aureus ATCC 29213; [5]): 0.625 µM (≈ 0.519 µg/mL)
Mouse ([1]; CD-1, mouse, pH 7.4): 3.38 ± 0.37 h
Minimal Inhibitory Concentrations (μM) S. aureus ΔClpP (S. aureus ΔClpP): >20 µM
